Converted amounts (≈) assume the structure as drawn.
Tested on: M. tuberculosis H37Rv growth inhibition
Assay: Mycobacterium tuberculosis H37Rv growth inhibition, putative kinase inhibitor library, confirmatory dose response (AID 2842);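 note: bacteria incubated one week before Alamar blue readout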

Row | SMILES | IC90 [µg/mL]
1 | Cc1ccc(C)c(-c2nnc(NC(=O)c3ccc([N+](=O)[O-])s3)o2)c1 | 3.09 (≈ 8.97 µM)
2 | COc1cccc(C(=O)Nc2nnc(C3=COCCO3)o2)c1 | 4.85 (≈ 16 µM)
3 | O=C(CCOc1ccccc1)Nc1nnc(-c2ccccc2)o1 | 6.68 (≈ 21.6 µM)
4 | O=C1c2cccc3cccc(c23)C(=O)N1CCc1ccc(S(=O)(=O)N2CCCCC2)cc1 | 5.87 (≈ 13.1 µM)
5 | O=C(Nc1nnc(-c2ccc(Br)cc2)o1)c1ccc([N+](=O)[O-])cc1 | 50.9 (≈ 131 µM)
6 | O=C(COc1ccc(Cl)cc1)NCCSc1ncc(-c2ccc(F)cc2)[nH]1 | 10 (≈ 24.6 µM)
7 | O=C(Nc1ncc(Cc2ccccc2Cl)s1)c1cccs1 | 18.3 (≈ 54.5 µM)
8 | CSc1ccc2nc(Nc3nc4ccc(NC(C)=O)cc4s3)sc2c1 | < 0.2
9 | O=c1cnnc(N/N=C/c2ccccc2O)[nH]1 | 0.46 (≈ 1.99 µM)
10 | COC(=O)c1ccc(CSc2nnc(-c3ccncc3)o2)o1 | 5.77 (≈ 18.2 µM)
11 | COc1cccc2sc(N(CCCn3ccnc3)C(=O)c3ccco3)nc12 | 12.4 (≈ 32.5 µM)
12 | O=C(c1cccs1)N(CCCn1ccnc1)c1nc2c(Cl)cccc2s1 | 5.18 (≈ 12.9 µM)
13 | CCOC(=O)c1c(NC(=O)/C=C/C(N)=O)sc2c1CCCC2 | 6.76 (≈ 21 µM)
14 | CS(=O)(=O)NNc1ccc([N+](=O)[O-])cc1[N+](=O)[O-] | 11.6 (≈ 41.9 µM)
15 | O=[n+]1c2ccccc2n([O-])c2ccccc21 | 3.52 (≈ 16.6 µM)
16 | COc1ccc(Nc2nc(Nc3ccc(C)c(C)c3)nc3nccnc23)cc1 | 3.93 (≈ 10.6 µM)
17 | O=C(Nc1nnc(-c2ccc(Br)cc2)o1)c1ccccc1F | 4.4 (≈ 12.1 µM)
18 | Cc1ccc(-n2ncc3c(NC(C)C)ncnc32)cc1Cl | 64 (≈ 212 µM)
19 | COc1ccc2nc(NNC(=O)c3cccc(F)c3)sc2c1 | 15.8 (≈ 49.8 µM)
20 | COc1cccc(/C=N/Nc2nncc(=O)[nH]2)c1O | 0.43 (≈ 1.65 µM)
21 | Clc1cccc(Nc2ccc(NCc3ccccc3)nn2)c1 | 6.71 (≈ 21.6 µM)
22 | O=C(CCc1ccccc1)Nc1nnc(-c2ccc3c(c2)CCCC3)o1 | 30 (≈ 86.2 µM)

Row | SMILES | IC90 [µg/mL]
23 | Cc1cc(Cl)cc2sc(N(CCCn3ccnc3)C(=O)c3ccco3)nc12 | < 0.2
24 | CSc1cccc2sc(Nc3cccc(Cl)c3)nc12 | 5.38 (≈ 17.5 µM)
25 | COc1ccc(-c2nnc(NC(=O)c3ccc4c(c3)OCCO4)o2)c(OC)c1 | 24.7 (≈ 64.4 µM)
26 | O=C(Nc1nc2c(s1)COc1ccccc1-2)c1cccc(NS(=O)(=O)c2ccc(F)cc2)c1 | 13.4 (≈ 27.8 µM)
27 | O=C(/C=C/c1cccs1)Nc1nnc(-c2ccc3c(c2)OCCO3)o1 | 37 (≈ 104 µM)
28 | O=C(NNc1nc2c(F)cc(F)cc2s1)c1coc2ccccc2c1=O | 3.33 (≈ 8.92 µM)
29 | O=C1CN(C(=O)c2cccc(F)c2)C(c2ccc(F)cc2)c2cc(Br)ccc2N1 (stereo not given) | 32.1 (≈ 70.2 µM)
30 | CCCCCOc1ccc(C(=O)Nc2nnc(-c3ccccn3)o2)cc1 | 2.15 (≈ 6.1 µM)
31 | CC(C)(C)c1ccc(C(=O)Nc2nnc(-c3ccccn3)o2)cc1 | 8.06 (≈ 25 µM)
32 | COc1ccc(-c2nsc(SCC(=O)Nc3ccc(C(C)=O)cc3)n2)cc1 | 25.9 (≈ 64.9 µM)
33 | O=C(Nc1nnc(-c2ccc3c(c2)CCCC3)o1)c1ccc(Cl)s1 | 3.63 (≈ 10.1 µM)
34 | Cc1cccc2sc(NNC(=O)c3cc(-c4cccs4)nc4ccccc34)nc12 | 22.8 (≈ 54.8 µM)
35 | COc1cc2c(=O)c(C(=O)c3ccc(F)cc3)cn(Cc3ccc(C)cc3)c2cc1OC | 7.24 (≈ 16.8 µM)
36 | CCC(=O)Nc1nnc(-c2ccc(Cl)s2)o1 | 8.62 (≈ 33.4 µM)
37 | CCS(=O)(=O)c1ccc(C(=O)Nc2nnc(-c3ccc(Br)cc3)o2)cc1 | 24.6 (≈ 56.4 µM)
38 | O=C(Nc1cccc(-c2ccc3nnc(-c4cccnc4)n3n2)c1)c1ccc(F)cc1F | 27.6 (≈ 64.5 µM)
39 | COc1cccc(-c2nnc(NC(=O)c3ccccc3Cl)o2)c1 | 2.69 (≈ 8.16 µM)
40 | OCCOCCNc1nc(Nc2cccc(F)c2)nc2c1cnn2-c1ccccc1 | 4.91 (≈ 12 µM)
41 | CC(C)(C)C1CCc2c(sc3nnn(CC(=O)NCc4ccco4)c(=O)c23)C1 (stereo not given) | 22.3 (≈ 55.7 µM)
42 | O=C(c1ccco1)N(CCCn1ccnc1)c1nc2ccc(F)cc2s1 | 1.94 (≈ 5.24 µM)
43 | CCCCOc1ccc(C(=O)Nc2nnc(-c3ccncc3)o2)cc1 | 3.42 (≈ 10.1 µM)
44 | Cc1ccc(C)c(-c2nnc(NC(=O)c3ccc([N+](=O)[O-])o3)o2)c1 | 1.29 (≈ 3.93 µM)

Row | SMILES | IC90 [µg/mL]
45 | O=C(CCSc1ccccc1)Nc1nc(-c2ccccn2)cs1 | 21.8 (≈ 63.9 µM)
46 | CCCCC(=O)Nc1nnc(-c2ccc(Br)cc2)o1 | 2.3 (≈ 7.09 µM)
47 | CCOC(=O)N1CCN(c2ncnc3c2cnn3-c2ccc(C)cc2)CC1 | 21.4 (≈ 58.5 µM)
48 | CCc1ccc(OCC(=O)Nc2ccc(OC)cc2)cc1 | 12.7 (≈ 44.3 µM)
49 | COc1cccc2sc(NNC(=O)c3cc(=O)c4ccccc4o3)nc12 | 25.5 (≈ 69.5 µM)
50 | Cc1ccc(C2C(C#N)=C(SCC(=O)Nc3cccc(Cl)c3)NC3=C2C(=O)CCC3)o1 (stereo not given) | 12.1 (≈ 26.6 µM)
51 | O=C(NCCSc1c(-c2ccccc2)[nH]c2ccccc12)c1cc2ccccc2oc1=O | 2.71 (≈ 6.15 µM)
52 | COC(=O)c1c(NC(=O)c2ccccc2I)sc2c1CC(C)(C)NC2(C)C | 13.2 (≈ 26.6 µM)
53 | CCCCc1ccc2[nH]cc(C(=O)O)c(=O)c2c1 | 14.5 (≈ 59 µM)
54 | Cc1ccc(-c2nnc(NC(=O)c3ccc([N+](=O)[O-])o3)o2)c(C)c1 | 0.69 (≈ 2.1 µM)
55 | COc1ccc(-c2cc3ccccc3n2CC(O)CNCCc2ccccc2)cc1 (stereo not given) | 4.11 (≈ 10.3 µM)
56 | O=C(Nc1nnc(-c2cc(Cl)ccc2Cl)o1)c1c(F)cccc1F | 3.48 (≈ 9.4 µM)
57 | N#Cc1ccc(C(=O)Nc2nnc(-c3ccc4c(c3)CCCC4)o2)cc1 | 1.71 (≈ 4.97 µM)
58 | CCCC(=O)Nc1nnc(-c2ccc(C)cc2C)o1 | 2.25 (≈ 8.68 µM)
59 | CCC(=O)Nc1nnc(-c2cc(Cl)ccc2Cl)o1 | 30.1 (≈ 105 µM)
60 | O=C(Nc1nnc(-c2ccccc2Cl)o1)c1cccc(Oc2ccccc2)c1 | 0.86 (≈ 2.19 µM)
61 | C=CCOC(=O)COc1ccc2cc(-c3ccccc3)c(=O)oc2c1 | 1.22 (≈ 3.63 µM)
62 | COc1ccc(-c2nnc(NC(=O)C(C)C)o2)cc1 | 19.9 (≈ 76.3 µM)
63 | CCOc1ccc2c(c1)O/C(=C\c1cccc(OCC(=O)OC)c1)C2=O | 1.66 (≈ 4.68 µM)
64 | COc1ccc(CNC(=O)c2c(C)oc3c2C(=O)c2ccccc2C3=O)cc1 | 1.1 (≈ 2.93 µM)
65 | Cc1nc2c(ccc3nc(NC(=O)Cc4ccccc4)sc32)s1 | 2.92 (≈ 8.6 µM)
66 | COc1cc(-c2nnc(NC(=O)C3CCCCC3)o2)cc(OC)c1OC | 18.4 (≈ 50.8 µM)

Row | SMILES | IC90 [µg/mL]
67 | CCCCC(=O)Nc1nnc(-c2ccc(Cl)s2)o1 | 3.23 (≈ 11.3 µM)
68 | COc1ccc(-c2nnc(NC(=O)c3ccccc3C)o2)cc1 | 9.97 (≈ 32.2 µM)
69 | Cc1nnc(SCC(=O)Nc2ccc3c(c2)OCCO3)n(N)c1=O | 23.1 (≈ 66.2 µM)
70 | CSc1ccc2nc(Nc3cccc(C)c3C)sc2c1 | 18.8 (≈ 62.7 µM)
71 | O=C(CCSc1ccccc1)Nc1nnc(-c2ccc3c(c2)OCCO3)o1 | 16.8 (≈ 43.9 µM)
72 | COc1cccc(NC(=O)C2C(=O)CN(c3ccccc3)C2=O)c1 (stereo not given) | 4.41 (≈ 13.6 µM)
73 | CCOc1cc(-c2nnc(NC(=O)c3ccccc3Cl)o2)cc(OCC)c1OCC | 1.61 (≈ 3.73 µM)
74 | Cc1ccc(-c2nnc(NC(=O)c3ccc(Cl)s3)o2)c(C)c1 | 2.01 (≈ 6.02 µM)
75 | CCc1ccc(-c2nnc3c4cc5c(cc4n(Cc4ccc(OC)cc4)cc2-3)OCCO5)cc1 | 5.37 (≈ 11.9 µM)
76 | Cc1c(C#N)c(N)nc(SCC(=O)c2cc3ccccc3oc2=O)c1C#N | 0.42 (≈ 1.12 µM)
77 | CCOC(=O)N1CCc2c(sc(NC(=O)c3ccccc3)c2C(N)=O)C1 | 1.84 (≈ 4.93 µM)
78 | O=C(CCc1ccccc1)Nc1nnc(-c2ccc(Cl)s2)o1 | 2.27 (≈ 6.8 µM)
79 | O=C(/C=C/c1cccs1)Nc1nnc(-c2ccco2)o1 | 5.99 (≈ 20.8 µM)
80 | CCCCC(=O)Nc1nnc(-c2cc(Cl)ccc2Cl)o1 | 32.4 (≈ 103 µM)
81 | O=C(NCCSc1c[nH]c2ccccc12)c1cc2ccccc2oc1=O | 1.58 (≈ 4.34 µM)
82 | COc1ccc2sc(Nc3nnc(-c4ccco4)o3)nc2c1 | 80 (≈ 255 µM)
83 | O=C(Nc1nnc(-c2ccc(Cl)s2)o1)c1cccc([N+](=O)[O-])c1 | 6.09 (≈ 17.4 µM)
84 | O=c1c2ccccc2oc2cc(O)ccc12 | 50 (≈ 236 µM)
85 | COc1ccc(-c2nnc3c4cc5c(cc4n(Cc4cccc(OC)c4)cc2-3)OCCO5)cc1 | 5.28 (≈ 11.6 µM)
